Laboratory results: publication PMC4603778, “Encoded Library Synthesis Using Chemical Ligation and the Discovery of sEH Inhibitors from a 334-Million Member Library” (Scientific Reports, 2015)

Molecular target: T1, soluble epoxide hydrolase (sEH) (Homo sapiens, UniProt P34913)
T1 construct: gene EPHX2; His-tagged sEH protein (used in the selection)
T1 sequence (P34913 1-555): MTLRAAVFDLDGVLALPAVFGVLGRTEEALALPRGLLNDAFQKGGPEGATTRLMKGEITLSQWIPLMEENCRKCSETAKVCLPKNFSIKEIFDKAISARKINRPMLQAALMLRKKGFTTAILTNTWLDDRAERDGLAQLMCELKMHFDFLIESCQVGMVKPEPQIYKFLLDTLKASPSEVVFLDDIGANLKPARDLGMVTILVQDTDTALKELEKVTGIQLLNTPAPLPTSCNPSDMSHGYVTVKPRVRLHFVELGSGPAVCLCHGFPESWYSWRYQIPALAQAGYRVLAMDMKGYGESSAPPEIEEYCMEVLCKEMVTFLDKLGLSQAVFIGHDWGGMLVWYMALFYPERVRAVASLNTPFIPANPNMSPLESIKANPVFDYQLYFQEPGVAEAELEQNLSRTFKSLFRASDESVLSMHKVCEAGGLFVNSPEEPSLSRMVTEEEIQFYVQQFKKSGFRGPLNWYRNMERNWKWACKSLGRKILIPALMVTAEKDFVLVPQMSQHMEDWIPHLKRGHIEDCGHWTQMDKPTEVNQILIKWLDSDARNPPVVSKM
Test: biochemical sEH inhibition assay of off-DNA compound (methyl in place of DNA linker); building-block combination enriched in affinity selection

IC50: 2 nM
SMILES: CN(CCn1cccn1)C(=O)c1ccc(-c2cccc(C(=O)NC3CCCCC3)c2)nc1 [compound 12]
